# Data from US9108902B2, “Deuterated 2-amino-3-hydroxypropanoic acid derivatives” (Concert Pharmaceuticals, Inc., priority 2008, dated 2015).
# Read-outs that look alike come from different tables or passages of the source.
# What was measured:
# [1] = Pharmacokinetic study in chimps after oral and intravenous co-dosing: plasma levels by LC-MS/MS; format: in vivo; details: for Cmax / AUC(0-t): plasma, 50 mg, co-administered 1:1; for AUC(0-t): read-out: AUC(0-24)
# Protocol: (§1) A 1:1 mixture of the two compounds was then prepared containing a final concentration of 1 mg/mL of each compound and the mixture was then sterile filtered through a 0.2-μm filter.
# Two chimps (one male and one female) were used in each of the oral and intravenous studies. Animals were fasted overnight prior to administration of compounds. All animals were sedated with ketamine (approximately 10 mg/kg) and/or telazol (approximately 5 mg/kg) prior to dosing. Intravenous administration was achieved by IV infusion of 50 mg of each compound (50 mL total dosing solution) over 30 minutes. Oral administration was achieved by oral gavage of a single 50 mg dose of each compound (50 mL total dosing solution). Blood samples (4.5 mL) were collected from the dosed chimps at various times prior to and after dosing. For intravenous administrations blood samples were collected at 0 min (preinfusion), 15 min, 29.5 min (immediately before the end of the infusion), then 6, 15, 30 and 45 min, and 1, 2, 4, 6, 8, 10, 12 and 24 hr after the infusion is stopped. For oral administrations, blood samples were collected at 0 min (predose), 15 and 30 min, and 1, 1.5, 2, 4, 6, 8, 10 and 12 hr postdose.
# Blood samples were placed in tubes containing sodium heparin, mixed and stored on ice until centrifuged. Within 30 minutes of collection, plasma was isolated by centrifuging the blood samples and dividing the resulting plasma (approx. 2 ml) between two 96-deepwell plates. Each plate was sealed and stored at −70° C. until further analysis by LC-MS/MS using an Applied Bio-systems API 4000 mass spectrometer.
# (§2) Samples were analyzed by LC-MS/MS using an Applied Bio-systems API 4000 mass spectrometer.
# [2] = Pharmacokinetic study in chimps after oral and intravenous co-dosing: unmetabolized compound in urine; format: in vivo; details: both sexes, chimpanzee, 50 mg of each compound co-administered, average of chimps, urine collected 24 hours post-dose, read-out: Unmetabolized Compound Found in Urine
# Protocol: as §1
# Two chimps (one male and one female) were used in each of the oral and intravenous studies. Animals were fasted overnight prior to administration of compounds. All animals were sedated with ketamine (approximately 10 mg/kg) and/or telazol (approximately 5 mg/kg) prior to dosing. Intravenous administration was achieved by IV infusion of 50 mg of each compound (50 mL total dosing solution) over 30 minutes. Oral administration was achieved by oral gavage of a single 50 mg dose of each compound (50 mL total dosing solution). Blood samples (4.5 mL) were collected from the dosed chimps at various times prior to and after dosing.
# Urine was collected for 24 hours post-dose for each test animal and stored on ice. Total volume was measured and an aliquot was stored at −70° C. until further analysis
# as §2
# [3] = following either intravenous or oral administration to chimps
# [4] = iv, Chimp 1, IV infusion 50 mg of each compound over 30 min
# [5] = iv, Chimp 2, IV infusion 50 mg of each compound over 30 min
# [6] = po, Chimp 3, PO gavage single 50 mg dose of each compound
# [7] = po, Chimp 4, PO gavage single 50 mg dose of each compound
smiles,measurement,setting,value
"[2H]C([2H])([2H])OC[C@@H](NC(=O)C([2H])([2H])[2H])C(=O)NCc1ccccc1 [Compound 120, (R)-2-(Acetamido-d3)—N-benzyl-3-(methoxy-d3)propanamide]",AUC compared with lacosamide,[1]; [3],higher
same,Cmax compared with lacosamide,[1]; [3],higher
same,Cmax,[1]; [4],5280 ng/mL
same,AUC(0-t),[1]; [4],31300 ng·h/mL
same,Cmax,[1]; [5],1690 ng/mL
same,AUC(0-t),[1]; [5],25400 ng·h/mL
same,Cmax,[1]; [6],1540 ng/mL
same,AUC(0-t),[1]; [6],23100 ng·h/mL
same,Cmax,[1]; [7],1180 ng/mL
same,AUC(0-t),[1]; [7],18000 ng·h/mL
same,concentration at 24 h,[2]; IV,11000 ng/mL
same,concentration at 24 h,[2]; PO,3200 ng/mL
"COC[C@@H](NC(C)=O)C(=O)NCc1ccccc1 [Lacosamide, 2(R)-acetamido-N-benzyl-3-methoxypropionamide, reference compound]",Cmax,[1]; [4],4770 ng/mL
same,AUC(0-t),[1]; [4],27600 ng·h/mL
same,Cmax,[1]; [5],1560 ng/mL
same,AUC(0-t),[1]; [5],23000 ng·h/mL
same,Cmax,[1]; [6],1370 ng/mL
same,AUC(0-t),[1]; [6],20400 ng·h/mL
same,Cmax,[1]; [7],1090 ng/mL
same,AUC(0-t),[1]; [7],15900 ng·h/mL
same,concentration at 24 h,[2]; IV,9520 ng/mL
same,concentration at 24 h,[2]; PO,2720 ng/mL
